Source: patent US11414431B2, “Substituted pyrazolo[1,5-a]pyrimidines as TYK2 inhibitors” (Nimbus Lakshmi, Inc., priority 2018, dated 2022)

Key:
[1] = molecular target: human TYK2 (JH2domain-pseudokinase) (Homo sapiens (Human), UniProt P29597); assay: TYK2 JH2 Domain Binding Assay (KINOMEscan); settings: 11-point 3-fold dilution, top concentration 30,000 nM, duplicate; read-out: hTYK2_JH2_Binding (Kd; nM)
Outline: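 KINOMEscan competition binding: HEK293-expressed NFkB-fused TYK2 JH2 (G556–D888), DNA-tagged, against immobilized ligand beads, 1 h shaking at room temperature, 0.9% DMSO. Bound kinase quantified by qPCR.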

[2] = test system: IL-12 induced STAT4 phosphorlyation mediated by TYK2/JAK2; assay: IL-12 Induced pSTAT4 in Human PBMC; format: cell-based; settings: 1.7 ng/mL IL-12 for 30 minutes
Outline: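 Thawed human PBMC pre-incubated with compound 1 hr at 37° C (0.1% DMSO final), then stimulated 30 minutes with IL-12 at 1.7 ng/mL final. pSTAT4 and total STAT4 measured in cell lysates with MSD reagents.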

human TYK2 (JH2domain-pseudokinase), sequence (P29597 556-888): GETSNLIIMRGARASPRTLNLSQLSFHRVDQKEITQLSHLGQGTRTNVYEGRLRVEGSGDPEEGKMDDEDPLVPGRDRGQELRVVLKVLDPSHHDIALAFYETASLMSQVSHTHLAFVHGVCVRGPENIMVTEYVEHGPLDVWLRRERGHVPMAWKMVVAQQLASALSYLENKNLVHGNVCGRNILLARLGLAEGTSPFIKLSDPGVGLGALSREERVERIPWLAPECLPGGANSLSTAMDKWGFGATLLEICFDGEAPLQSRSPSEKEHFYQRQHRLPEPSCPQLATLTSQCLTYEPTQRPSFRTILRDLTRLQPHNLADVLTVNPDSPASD

## CNc1cc(-c2cnc3n([C@H]4COC[C@@H]4O)cccc2-3)nc2c(C(=O)N[C@@H]3C[C@@H]3F)cnn12 [Compound I-820]
[1]
  Kd: < 0.2 nM
[2]
  IC50: < 0.1 µM

## O=C(N[C@@H]1CCC1(F)F)c1cnn2c3c(c(Nc4cccn([C@H]5[C@@H]6COC[C@@H]65)c4=O)nc12)OCCN3 [Compound I-769]
[1]
  Kd: < 0.2 nM
[2]
  IC50: < 0.1 µM

## CNc1cc(-c2cnc3n(C4CCOCC4)cccc2-3)nc2c(C(=O)N[C@@H]3CC[C@H]3OC)cnn12 [Compound I-1015]
[1]
  Kd: < 0.2 nM
[2]
  IC50: 0.5 to 1 µM

## CNc1cc(-c2cn([C@H]3C[C@@H](O)C3)c3ncccc23)nc2c(C(=O)N[C@@H]3C[C@@H]3F)cnn12 [Compound I-500]
[1]
  Kd: < 0.2 nM
[2]
  IC50: 0.1 to 0.5 µM

## CNc1cc(Nc2cccn([C@H]3C[C@@H]3F)c2=O)nc2c(C(=O)N[C@H]3CC[C@@H]3OC)cnn12 [Compound I-49, 5-((1-((1S,2S)-2-Fluorocyclopropyl)-2-oxo-1,2-dihydropyridin-3-yl)amino)-N-((1S,2S)-2-methoxycyclobutyl)-7-(methylamino)pyrazolo[1,5-a]pyrimidine-3-carboxamide]
[1]
  Kd: < 0.2 nM
[2]; 0.5 h
  IC50: < 0.1 µM

## CNc1cc(-c2cn(C3COC3)c3ncccc23)nc2c(C(=O)NC3CC[C@@H]3F)cnn12 (stereo partly shown) [Compound I-507]
[1]
  Kd: < 0.2 nM
[2]
  IC50: < 0.1 µM

## CNc1cc(-c2cnc3n([C@@H]4CCOC[C@H]4O)cccc2-3)nc2c(C(=O)NC3CC3)cnn12 [Compound I-818, N-Cyclopropyl-5-(7-((3S,4R)-3-hydroxytetrahydro-2H-pyran-4-yl)-7H-pyrrolo[2,3-b]pyridin-3-yl)-7-(methylamino)pyrazolo[1,5-a]pyrimidine-3-carboxamide]
[1]
  Kd: < 0.2 nM
[2]; 0.5 h
  IC50: < 0.1 µM

## CNc1cc(Nc2cccn([C@H]3C[C@H](OC)C3)c2=O)nc2c(C(=O)NC3CCC3)cnn12 [Compound I-141]
[1]
  Kd: < 0.2 nM
[2]
  IC50: < 0.1 µM

## CNc1cc(Nc2cccn(C3CCOCC3)c2=O)nc2c(C(=O)NC3CCC3)cnn12 [Compound I-143]
[1]
  Kd: < 0.2 nM
[2]
  IC50: < 0.1 µM

## CNc1cc(-c2cnc3n([C@@H]4CCOC[C@H]4O)cccc2-3)nc2c(C(=O)N[C@@H]3C[C@@H]3F)cnn12 [Compound I-824]
[1]
  Kd: < 0.2 nM
[2]
  IC50: < 0.1 µM

## CNc1cc(-c2cnc3n([C@@H]4COC[C@H]4O)cccc2-3)nc2c(C(=O)N[C@@H]3C[C@@H]3F)cnn12 [Compound I-821]
[1]
  Kd: < 0.2 nM
[2]
  IC50: 0.1 to 0.5 µM

## CNc1cc(Nc2cccn([C@H]3CC[C@H](OC)CC3)c2=O)nc2c(C(=O)N[C@H]3C[C@@H]3OC)cnn12 [Compound I-32, 5-((1-((1r,4S)-4-Methoxycyclohexyl)-2-oxo-1,2-dihydropyridin-3-yl)amino)-N-((1S,2S)-2-methoxycyclopropyl)-7-(methylamino)pyrazolo[1,5-a]pyrimidine-3-carboxamide]
[1]
  Kd: < 0.2 nM
[2]
  IC50: < 0.1 µM

## CNc1ccc(-c2cc(NC)n3ncc(C(=O)NC4CC[C@@H]4OC)c3n2)n2ccnc12 (stereo partly shown) [Compound I-488]
[1]
  Kd: < 0.2 nM
[2]
  IC50: < 0.1 µM

## O=C(NC1CC[C@@H]1F)c1cnn2c3c(c(-c4cn([C@H]5C[C@H](O)C5)c5ncccc45)nc12)OCCN3 (stereo partly shown) [Compound I-756]
[1]
  Kd: < 0.2 nM
[2]
  IC50: < 0.1 µM

## CNc1cc(-c2cnc3n([C@H]4CCOC[C@@H]4O)cccc2-3)nc2c(C(=O)NC3CC3)cnn12 [Compound I-819]
[1]
  Kd: < 0.2 nM
[2]
  IC50: < 0.1 µM

## O=C(N[C@@H]1CCC1(F)F)c1cnn2c3c(c(-c4cn(C5COC5)c5ncccc45)nc12)OCCN3 [Compound I-772]
[1]
  Kd: < 0.2 nM
[2]
  IC50: < 0.1 µM

## CNc1cc(Nc2cccn(-c3ocnc3C)c2=O)nc2c(C(=O)NC3CCC3)cnn12 [Compound I-144]
[1]
  Kd: < 0.2 nM
[2]
  IC50: < 0.1 µM

## CO[C@@H]1CCC1NC(=O)c1cnn2c3c(c(Nc4cccn([C@H]5[C@@H]6COC[C@@H]65)c4=O)nc12)OCCN3 (stereo partly shown) [Compound I-762]
[1]
  Kd: < 0.2 nM
[2]
  IC50: < 0.1 µM

## CNc1cc(-c2cnc3n(CC(=O)N4CCOCC4)cccc2-3)nc2c(C(=O)NC3CC[C@@H]3OC)cnn12 (stereo partly shown) [Compound I-962]
[1]
  Kd: < 0.2 nM
[2]
  IC50: 0.5 to 1 µM

## CNc1cc(Nc2cccn([C@@H]3C[C@H]3F)c2=O)nc2c(C(=O)N[C@@H]3CC[C@H]3OC)cnn12 [Compound I-53, 5-((1-((1R,2R)-2-Fluorocyclopropyl)-2-oxo-1,2-dihydropyridin-3-γ1)amino)-N-((1R,2R)-2-methoxycyclobutyl)-7-(methylamino)pyrazolo[1,5-a]pyrimidine-3-carboxamide]
[1]
  Kd: < 0.2 nM
[2]
  IC50: < 0.1 µM

## O=C(N[C@H]1CC[C@@H]1F)c1cnn2c3c(c(-c4cn([C@H]5C[C@H](O)C5)c5ncccc45)nc12)OCCN3 [Compound I-757]
[1]
  Kd: < 0.2 nM
[2]
  IC50: < 0.1 µM

## CNc1ccc(-c2cc(NC)n3ncc(C(=O)N[C@@H]4CC[C@H]4OC)c3n2)n2ccnc12 [Compound I-490]
[1]
  Kd: < 0.2 nM
[2]
  IC50: < 0.1 µM

## CNc1cc(Nc2cccn([C@@H]3CCC[C@](C)(O)C3)c2=O)nc2c(C(=O)NC3CC3)cnn12 [Compound I-3, N-cyclopropyl-5-((1-((1R,3S)-3-hydroxy-3-methylcyclohexyl)-2-oxo-1,2-dihydropyridin-3-yl)amino)-7-(methylamino)pyrazolo[1,5-a]pyrimidine-3-carboxamide]
[1]
  Kd: < 0.2 nM
[2]; 0.5 h
  IC50: < 0.1 µM

## CNc1cc(Nc2cccn([C@H]3CC[C@H](OC)CC3)c2=O)nc2c(C(=O)N[C@@H]3C[C@H]3OC)cnn12 [Compound I-31, 5-((1-((1r,4R)-4-Methoxycyclohexyl)-2-oxo-1,2-dihydropyridin-3-yl)amino)-N-((1R,2R)-2-methoxycyclopropyl)-7-(methylamino)pyrazolo[1,5-a]pyrimidine-3-carboxamide]
[1]
  Kd: < 0.2 nM
[2]
  IC50: < 0.1 µM

## CNc1cc(Nc2cccn([C@H]3C[C@H](F)C3)c2=O)nc2c(C(=O)N[C@H]3C[C@@H]3OC)cnn12 [Compound I-138]
[1]
  Kd: < 0.2 nM
[2]
  IC50: < 0.1 µM

## O=C(N[C@@H]1C[C@@H]1F)c1cnn2c3c(c(Nc4cccc5ocnc45)nc12)OCCN3 [Compound I-752]
[1]
  Kd: < 0.2 nM
[2]
  IC50: < 0.1 µM

## CNc1cc(-c2cnc3n(C4CCN(CCOC)CC4)cccc2-3)nc2c(C(=O)N[C@H]3CC[C@@H]3OC)cnn12 [Compound I-1020, N-((1S,2S)-2-methoxycyclobutyl)-5-(7-(1-(2-methoxyethyl)piperidin-4-yl)-7H-pyrrolo[2,3-b]pyridin-3-yl)-7-(methylamino)pyrazolo[1,5-a]pyrimidine-3-carboxamide]
[1]
  Kd: < 0.2 nM
[2]; 0.5 h
  IC50: < 0.1 µM

## CC(C)n1cccc(Nc2nc3c(C(=O)NC4CCC4(F)F)cnn3c3c2OCCN3)c1=O (stereo not shown) [Compound I-765]
[1]
  Kd: < 0.2 nM
[2]
  IC50: < 0.1 µM

## CNc1cc(Nc2cccn(-c3ocnc3C)c2=O)nc2c(C(=O)NC3CC[C@@H]3F)cnn12 (stereo partly shown) [Compound I-185]
[1]
  Kd: < 0.2 nM
[2]
  IC50: < 0.1 µM

## CNc1cc(-c2cnc3n(CC(=O)N4CC5(COC5)C4)cccc2-3)nc2c(C(=O)N[C@H]3CC[C@@H]3OC)cnn12 [Compound I-1012]
[1]
  Kd: < 0.2 nM
[2]
  IC50: > 1 µM

## CNc1cc(Nc2cccn(C(C)C)c2=O)nc2c(C(=O)N[C@@H]3CC[C@@]3(C)O)cnn12 [Compound I-341]
[1]
  Kd: < 0.2 nM
[2]
  IC50: < 0.1 µM

## CNc1cc(-c2cn([C@@H]3COC[C@H]3O)c3ncccc23)nc2c(C(=O)N[C@@H]3C[C@@H]3F)cnn12 [Compound I-502]
[1]
  Kd: < 0.2 nM
[2]
  IC50: 0.1 to 0.5 µM

## CNc1cc(Nc2cccn(C3CC(F)(F)C3)c2=O)nc2c(C(=O)N[C@H]3CC[C@H](O)C3)cnn12 [Compound I-41, 5-((1-(3,3-Difluorocyclobutyl)-2-oxo-1,2-dihydropyridin-3-yl)amino)-N-((1S,3S)-3-hydroxycyclopentyl)-7-(methylamino)pyrazolo[1,5-a]pyrimidine-3-carboxamide]
[1]
  Kd: 0.2 to 1 nM
[2]; 0.5 h
  IC50: < 0.1 µM

## CNc1cc(Nc2cccn([C@H]3C[C@H](OC)C3)c2=O)nc2c(C(=O)NC3CC3)cnn12 [Compound I-4, N-Cyclopropyl-5-((1-((1r,3r)-3-methoxycyclobutyl)-2-oxo-1,2-dihydropyridin-3-yl)amino)-7-(methylamino)pyrazolo[1,5-a]pyrimidine-3-carboxamide]
[1]
  Kd: < 0.2 nM
[2]; 0.5 h
  IC50: < 0.1 µM

## CC(C)n1cc(-c2nc3c(C(=O)NC4CC[C@H]4O)cnn3c3c2OCCN3)c2cccnc21 (stereo partly shown) [Compound I-753]
[1]
  Kd: < 0.2 nM
[2]
  IC50: < 0.1 µM

## CO[C@H]1CC[C@@H]1NC(=O)c1cnn2c(N)cc(Nc3cccn(-c4ccccn4)c3=O)nc12 [Compound I-246]
[1]
  Kd: < 0.2 nM
[2]
  IC50: 0.1 to 0.5 µM

## CC(C)n1cccc(Nc2nc3c(C(=O)N[C@H]4CCC4(F)F)cnn3c3c2OCCN3)c1=O [Compound I-766]
[1]
  Kd: < 0.2 nM
[2]
  IC50: < 0.1 µM

## CNc1cc(-c2cn(C3CN(C)C3)c3ncccc23)nc2c(C(=O)NC3CC[C@@H]3OC)cnn12 (stereo partly shown) [Compound I-608]
[1]
  Kd: < 0.2 nM
[2]
  IC50: < 0.1 µM

## CNc1cc(-c2cnc3n([C@H]4CCOC[C@@H]4O)cccc2-3)nc2c(C(=O)N[C@@H]3C[C@@H]3F)cnn12 [Compound I-825]
[1]
  Kd: < 0.2 nM
[2]
  IC50: < 0.1 µM

## CNc1cc(Nc2cccn(-c3ocnc3C)c2=O)nc2c(C(=O)N[C@H]3CC[C@@H]3F)cnn12 [Compound I-186]
[1]
  Kd: < 0.2 nM
[2]
  IC50: < 0.1 µM

## CNc1cc(Nc2cccn([C@H]3C[C@H](OC)C3)c2=O)nc2c(C(=O)N[C@@H]3C[C@@H]3F)cnn12 [Compound I-8, N-((1R,2S)-2-Fluorocyclopropyl)-5-((1-((1r,3R)-3-methoxycyclobutyl)-2-oxo-1,2-dihydropyridin-3-yl)amino)-7-(methylamino)pyrazolo[5-a]pyrimidine-3-carboxamide]
[1]
  Kd: < 0.2 nM
[2]; 0.5 h
  IC50: < 0.1 µM
